Source: patent publication US20160341718A1, “METHODS FOR TESTING T CELL PRIMING EFFICACY IN A SUBJECT” (priority 2014, published 2016)

Tested on: naïve ELA-specific CD8+ T cell precursors in HLA-A2+ PBMCs
Assay: In vitro priming of ELA-specific CD8+ T cells from unfractionated PBMCs, ELA/HLA-A2 tetramer enumeration and CD45RA/CCR7 phenotype
Type: cell-based, human
Settings: day 10 after priming of HLA-A2+ PBMCs with ELA-20 1 μM
Description: Naïve precursors specific for the HLA-A*02:01-restricted epitope [sequence] […] The frequency, phenotype and functional profiling of ELA-specific CD8+ T cells were typically determined on day 10 or 11. Purified naïve and memory CD8+ T cell subsets for priming experiments were obtained using T Cell Enrichment Column Kits (R&D Systems).
ELA-specific CD8^+ T cells were quantified by flow cytometry using fluorochrome-labeled ELA/HLA-A*02:01 tetramers (FIG. 2A). […] For this purpose, we mixed purified naïve or memory CD8^+ T cells separately with autologous CD8-depleted PBMCs to initiate priming (FIG. 2B).
Moreover, to ensure optimal immunogenicity, we used the heteroclitic sequence [sequence]

lipopolysaccharide [TLR4L]
magnitude of primed/expanded ELA tetramer+ CD8+ T cells: only marginal effects
